Legend:
Format in all cases: in vivo
[1] = system: diarrhea caused by a chemotherapeutic agent in Balb/c mice; test: Examples 230-271 (Table 4): oral CDK inhibitor, relief of diarrhea caused by a chemotherapeutic agent
Text: Balb/c mice were fed for 1 week, and then divided into groups. The experiment was divided into a control group, a chemotherapeutic agent group, and a CDK inhibitor group, each of which comprised 10 mice, to perform the administration experiment, for which the administration dosage, mode, time and frequency were shown in Table 4. The control group: being intragastrically administered with the same solvent as that used in the CDK inhibitor group (the time was shown in Table 4), and then being injected/intragastrically administered with the same solvent as that used in the chemotherapeutic agent group (the administration mode was shown in Table 4): the chemotherapeutic agent group: being intragastrically administered with the same solvent as that used in the CDK inhibitor group (the time was shown in Table 4), and then being injected/intragastrically administered with the chemotherapeutic agent (the type, administration mode and dosage were shown in Table 4): the CDK inhibitor group: being intragastrically administered with the CDK inhibitor (the time was shown in Table 4), and then being administered with the chemotherapeutic agent (the mode and dosage were shown in Table 4).
The diarrhea grading of mice was observed and recorded every day.

[2] = system: diarrhea caused by the continuous administration of a chemotherapeutic agent in Balb/c mice; test: Examples 444-469 (Table 9): oral CDK inhibitor, diarrhea caused by continuous administration of a chemotherapeutic agent; details: CDK inhibitor oral 150 mg/kg once a day
Text: Balb/c mice were fed for 1 week, and then divided into groups. The experiment was divided into a control group, a chemotherapeutic agent group, and a CDK inhibitor group, each of which comprised 10 mice, to perform the administration experiment, for which the administration dosage, mode, time and frequency were shown in Table 9. The control group: being intragastrically administered with the same solvent as that used in the CDK inhibitor group (the time was shown in Table 9), and then being injected/intragastrically administered with the same solvent as that used in the chemotherapeutic agent group (the administration mode was shown in Table 9): the chemotherapeutic agent group: being intragastrically administered with the same solvent as that used in the CDK inhibitor group (the time was shown in Table 9), and then being injected/intragastrically administered with the chemotherapeutic agent (the type, administration mode, dosage and duration time were shown in Table 9): the CDK inhibitor group: being intragastrically administered with the CDK inhibitor (the time was shown in Table 9), and then being administered with the chemotherapeutic agent (the type, administration mode, dosage and duration time were shown in Table 9).
The scoring of diarrhea can refer to the method of Akinobu Kurita (Cancer Chemother Pharmacol 2000: 46:211-20.), Grade 0: normal feces: Grade 1: mild diarrhea, the stools is slightly wet and soft: Grade 2: moderate diarrhea, loose stools and mild perianal contamination: Grade 3: severe diarrhea, watery stools and accompanied by severe perianal staining (see FIG. 1). It is regarded as effective remission when the diarrhea grading of mice in the CDK inhibitor group is reduced compared with the average diarrhea grading of mice in the chemotherapeutic agent group.
The diarrhea grading of mice was observed and recorded every day. At the end of the experiment, the number of mice in the CDK inhibitor group whose diarrhea grading was lower than that of mice in the chemotherapeutic agent group was recorded. Table 9 lists various animal experiment combinations of chemotherapeutic agents and CDK inhibitors, as well as the corresponding experimental results. (Relative remission rate %=the number of mice in the CDK inhibitor group whose diarrhea has been effectively relieved/the total number of mice in the CDK inhibitor group*100%. The establishment rate of diarrhea model in the chemotherapeutic agent group was 50%-80%, that is, about 5-8 of 10 mice developed diarrhea during the experiment, and there were cases of individual mice death or not developing diarrhea.)

[3] = system: Chemotherapeutic agent-caused constipation models of Balb/c mice; test: Examples 272-342 (Table 5): oral CDK inhibitor, relief of constipation caused by a chemotherapeutic agent;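 further: percent of treated mice relieved versus chemotherapy group by feces reduction rate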
Method in brief: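 Balb/c mice, 10 per group: control, chemotherapeutic agent alone, or intragastric CDK inhibitor followed by the chemotherapeutic agent. Feces produced within 3 hours were recorded daily, and feces reduction rate (%) was calculated relative to the control group.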

SMILES: CCN1CCN(Cc2ccc(Nc3ncc(F)c(-c4cc(F)c5nc(C)n(C(C)C)c5c4)n3)nc2)CC1 [Abemaciclib]
- Relative remission rate ([1]; Example 253, Methotrexate (MTX) intramuscular injection 300 mg/kg single, CDK inhibitor oral 150 mg/kg single, 8 h before, cycle 7 days): 70%
- Relative remission rate ([1]; Example 263, Vinorelbine (NVB) intravenous injection 10 mg/kg single, CDK inhibitor oral 150 mg/kg single, 0.5 h before, cycle 7 days): 60%
- Relative remission rate ([1]; Example 264, Vinorelbine (NVB) intravenous injection 10 mg/kg single, CDK inhibitor oral 150 mg/kg single, 4 h before, cycle 7 days): 80%
- Relative remission rate ([1]; Example 265, Vinorelbine (NVB) intravenous injection 10 mg/kg single, CDK inhibitor oral 150 mg/kg single, 8 h before, cycle 7 days): 80%
- Relative remission rate ([1]; Example 266, Vinorelbine (NVB) intravenous injection 10 mg/kg single, CDK inhibitor oral 150 mg/kg single, 12 h before, cycle 7 days): 60%
- Relative remission rate ([1]; Example 267, Vinorelbine (NVB) intravenous injection 10 mg/kg single, CDK inhibitor oral 150 mg/kg single, 24 h before, cycle 7 days): 50%
- Relative remission rate ([1]; Example 268, Vinorelbine (NVB) intravenous injection 10 mg/kg single, CDK inhibitor oral 150 mg/kg single, 48 h before, cycle 7 days): 0%
- Relative remission rate ([2]; Example 457, Fluorouracil (5-Fu) oral administration 50 mg/kg once a day, for 14 days, for 14 days, 8 h before, cycle 14 days): 0%
- Relative remission rate ([3]; Example 295, Fluorouracil (5-Fu) intramuscular injection 200 mg/kg single, CDK inhibitor oral 100 mg/kg single, 22 h before, cycle 7 days): 60%
- Relative remission rate ([3]; Example 296, Oxaliplatin intraperitoneal injection 20 mg/kg single, CDK inhibitor oral 100 mg/kg single, 0.5 h before, cycle 8 days): 50%
- Relative remission rate ([3]; Example 297, Oxaliplatin intraperitoneal injection 20 mg/kg single, CDK inhibitor oral 100 mg/kg single, 4 h before, cycle 8 days): 40%
- Relative remission rate ([3]; Example 298, Oxaliplatin intraperitoneal injection 20 mg/kg single, CDK inhibitor oral 100 mg/kg single, 8 h before, cycle 8 days): 60%
- Relative remission rate ([3]; Example 299, Oxaliplatin intraperitoneal injection 20 mg/kg single, CDK inhibitor oral 100 mg/kg single, 12 h before, cycle 8 days): 60%
- Relative remission rate ([3]; Example 300, Oxaliplatin intraperitoneal injection 20 mg/kg single, CDK inhibitor oral 100 mg/kg single, 24 h before, cycle 8 days): 40%
- Relative remission rate ([3]; Example 301, Oxaliplatin intraperitoneal injection 20 mg/kg single, CDK inhibitor oral 100 mg/kg single, 48 h before, cycle 8 days): 0%
- Relative remission rate ([3]; Example 312, Irinotecan (CPT-11) intravenous injection 260 mg/kg single, CDK inhibitor oral 150 mg/kg single, 14 h before, cycle 7 days): 50%
- Relative remission rate ([3]; Example 324, Gemcitabine and paclitaxel intraperitoneal injection 60 (G) 10 (P) mg/kg single, CDK inhibitor oral 150 mg/kg single, 24 h before, cycle 8 days): 60%
- Relative remission rate ([3]; Example 342, Methotrexate (MTX) intraperitoneal injection 300 mg/kg single, CDK inhibitor oral 150 mg/kg single, 8 h before, cycle 7 days): 30%

SMILES: CC(=O)c1c(C)c2cnc(Nc3ccc(N4CCNCC4)cn3)nc2n(C2CCCC2)c1=O [Palbociclib]
- Relative remission rate ([1]; Example 230, Doxorubicin (Dox) intraperitoneal injection 10 mg/kg single, CDK inhibitor oral 150 mg/kg single, 0.5 h before, cycle 12 days): 50%
- Relative remission rate ([1]; Example 231, Doxorubicin (Dox) intraperitoneal injection 10 mg/kg single, CDK inhibitor oral 150 mg/kg single, 4 h before, cycle 12 days): 70%
- Relative remission rate ([1]; Example 232, Doxorubicin (Dox) intraperitoneal injection 10 mg/kg single, CDK inhibitor oral 150 mg/kg single, 8 h before, cycle 12 days): 70%
- Relative remission rate ([1]; Example 233, Doxorubicin (Dox) intraperitoneal injection 10 mg/kg single, CDK inhibitor oral 150 mg/kg single, 12 h before, cycle 12 days): 80%
- Relative remission rate ([1]; Example 234, Doxorubicin (Dox) intraperitoneal injection 10 mg/kg single, CDK inhibitor oral 150 mg/kg single, 24 h before, cycle 12 days): 50%
- Relative remission rate ([1]; Example 235, Doxorubicin (Dox) intraperitoneal injection 10 mg/kg single, CDK inhibitor oral 150 mg/kg single, 48 h before, cycle 12 days): 0%
- Relative remission rate ([1]; Example 249, Methotrexate (MTX) oral administration 400 mg/kg single, CDK inhibitor oral 125 mg/kg single, 4 h before, cycle 7 days): 60%
- Relative remission rate ([1]; Example 250, Methotrexate (MTX) oral administration 400 mg/kg single, CDK inhibitor oral 125 mg/kg single, 24 h before, cycle 7 days): 60%
- Relative remission rate ([1]; Example 260, Cytarabine (Ara-C) intravenous injection 600 mg/kg single, CDK inhibitor oral 150 mg/kg single, 6 h before, cycle 8 days): 60%
- Relative remission rate ([1]; Example 271, Vinorelbine (NVB) intraperitoneal injection 10 mg/kg single, CDK inhibitor oral 200 mg/kg single, 12 h before, cycle 7 days): 70%
- Relative remission rate ([2]; Examples 444-447 (one value printed; 4 h, 6 h, 8 h, 12 h before), Fluorouracil (5-Fu) intraperitoneal injection 70 mg/kg once a day, for 3 days, for 3 days, cycle 10 days): 70%
- Relative remission rate ([2]; Examples 448-451 (one value printed; 4 h, 6 h, 8 h, 12 h before), Fluorouracil (5-Fu) intraperitoneal injection 70 mg/kg once a day, for 5 days, for 5 days, cycle 9 days): 60%
- Relative remission rate ([2]; Examples 462-465 (one value given; 2 h, 4 h, 6 h, 8 h before), Capecitabine oral administration 1000 mg/kg (printed 100/0 wrapped) once a day, for 7 days, for 7 days, cycle 14 days): 0%
- Relative remission rate ([2]; Examples 466-469 (one value given; 2 h, 4 h, 6 h, 8 h before), Capecitabine oral administration 1000 mg/kg (printed 100/0 wrapped) once a day, for 14 days, for 14 days, cycle 14 days): 10%
- Relative remission rate ([3]; Example 293, Fluorouracil (5-Fu) oral administration 300 mg/kg single, CDK inhibitor oral 150 mg/kg single, 8 h before, cycle 7 days): 50%
- Relative remission rate ([3]; Example 304, Irinotecan (CPT-11) intraperitoneal injection 260 mg/kg single, CDK inhibitor oral 150 mg/kg single, 0.5 h before, cycle 7 days): 40%
- Relative remission rate ([3]; Example 305, Irinotecan (CPT-11) intraperitoneal injection 260 mg/kg single, CDK inhibitor oral 150 mg/kg single, 4 h before, cycle 7 days): 60%
- Relative remission rate ([3]; Example 306, Irinotecan (CPT-11) intraperitoneal injection 260 mg/kg single, CDK inhibitor oral 150 mg/kg single, 8 h before, cycle 7 days): 80%
- Relative remission rate ([3]; Example 307, Irinotecan (CPT-11) intraperitoneal injection 260 mg/kg single, CDK inhibitor oral 150 mg/kg single, 12 h before, cycle 7 days): 70%
- Relative remission rate ([3]; Example 308, Irinotecan (CPT-11) intraperitoneal injection 260 mg/kg single, CDK inhibitor oral 150 mg/kg single, 24 h before, cycle 7 days): 30%
- Relative remission rate ([3]; Example 309, Irinotecan (CPT-11) intraperitoneal injection 260 mg/kg single, CDK inhibitor oral 150 mg/kg single, 48 h before, cycle 7 days): 0%
- Relative remission rate ([3]; Example 333, Cytarabine (Ara-C) intravenous injection 600 mg/kg single, CDK inhibitor oral 150 mg/kg single, 6 h before, cycle 8 days): 50%
